Source: US20180291402A1, “Linalool Composition and Method of Producing Therefor” (AJINOMOTO CO., INC., priority 2015, published 2018)

Legend:
[1] = test system: SWITCH-PphoC Δgcd/pSTV28 strain; assay: Linalool addition test (growth, O.D. value over time); assay type: cell-based, P. ananatis; conditions: reagent Linalool added at O.D. 0.6 to 0.7; tested at 1251, 837, 626 and 417 mg/L; M9 minimum medium, 34° C.; FIG. 58
Method: The glycerol stock of the SWITCH-PphoC Δgcd/pSTV28 strain obtained by transforming the SWITCH-PphoC Δgcd strain constructed in Example 2 with the commercially available plasmid vector pSTV28 (produced by Takara Bio Inc.) was thawed, and 50 μL of a microbial cell suspension was uniformly applied onto an LB plate containing 60 mg/L of chloramphenicol and cultured at 34° C. for 18 hours while left to stand (without agitation). […] Cultivation was carried out using a small-sized shaking culture apparatus TVS062CA (produced by Advantec Toyo Kaisha, Ltd.) for 23 hours, the shaking of 5.0 sec was stopped every 15 minutes, and the O.D. values were automatically measured.
The concentration of linalool in the culture medium was calculated from the specific gravity of the reagent Linalool (0.86 (20/4° C.)) (reference literature: actual values supplied from Wako Pure Chemical Industries, Ltd.).
The graph showing changes of the O.D. value over time measured using TVS062CA communication software (TV100070, produced by Advantec Toyo Kaisha, Ltd.) is illustrated in FIG. 58.

[2] = general statement on two-phase culture; cited from earlier work

Structure (SMILES) | concentration of linalool added to the culture medium at which the O.D. value is decreased (microbial cell growth inhibition) [1] | solubility with respect to water [2]
C=CC(C)(O)CCC=C(C)C (stereo not drawn) [linalool, Linalool] | ≥ 626 µg/mL | 
C=C[C@](C)(O)CCC=C(C)C [R-linalool, (3R)-3,7-dimethylocta-1,6-diene-3-ol] |  | low solubility
C=C[C@@](C)(O)CCC=C(C)C [S-linalool, (3 S)-3,7-dimethylocta-1,6-diene-3-ol] |  | low solubility
